Source: US20230301300A1, “HERBICIDAL COMPOSITIONS” (SYNGENTA CROP PROTECTION AG, priority 2020, published 2023)

What was measured:
Assay in all cases: B2 Post-Emergence Efficacy - Test 2
Format in all cases: in vivo
[1] = system: Bromus tectorum (BROTE); conditions: 15 days after application, 0-100 scale
How it was run: (§1)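 Score 0–100 (0 none, 100 kill), 15 d after spraying. Treatment: IF50 formulation in aqueous spray, adjuvant Genapol X080 at 0.2% v/v, applied to plants 12 d after sowing. Glasshouse day/night 24/18 or 20/16 °C, 16 h light, 65% humidity.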

[2] = system: Echinochloa crus galli (ECHCG); conditions: 15 days after application, 0=no damage, 100=total kill
How it was run: as §1

[3] = system: Polygonum convolvulus (POLCO); conditions: 15 days after application, 0-100 scale
How it was run: as §1

Row | SMILES | Herbicidal activity BROTE ([1]; 15 g/Ha) | Herbicidal activity BROTE ([1]; 30 g/Ha) | Herbicidal activity BROTE ([1]; 60 g/Ha) | Herbicidal activity BROTE ([1]; 125 g/Ha) | Herbicidal activity BROTE ([1]; 250 g/Ha) | Herbicidal activity BROTE ([1]; 500 g/Ha) | Herbicidal activity on a 0-100 scale, ECHCG ([2]; 15 g/Ha) | Herbicidal activity on a 0-100 scale, ECHCG ([2]; 30 g/Ha) | Herbicidal activity on a 0-100 scale, ECHCG ([2]; 60 g/Ha) | Herbicidal activity on a 0-100 scale, ECHCG ([2]; 125 g/Ha) | Herbicidal activity on a 0-100 scale, ECHCG ([2]; 250 g/Ha) | Herbicidal activity on a 0-100 scale, ECHCG ([2]; 500 g/Ha) | Herbicidal activity POLCO ([3]; 15 g/Ha) | Herbicidal activity POLCO ([3]; 60 g/Ha) | Herbicidal activity POLCO ([3]; 125 g/Ha) | Herbicidal activity POLCO ([3]; 250 g/Ha) | Herbicidal activity POLCO ([3]; 500 g/Ha) | Herbicidal activity POLCO ([3]; 30 g/Ha)
1 | Cc1nn(C)c(=O)c(-c2c(F)ccc(Cl)c2CCc2ccc(C#N)cc2)c1O [Compound 1.024, 4-[3-chloro-6-fluoro-2-[2-[4-(cyano)phenyl]ethyl]phenyl]-5-hydroxy-2,6-dimethyl-pyridazin-3-one] | 0 | 0 | 10 | 20 | 40 | 70 | 70 | 80 | 80 | 90 | 90 | 100 | 80 | 90 | 90 | 90 | 100 | –
2 | Cc1nn(C)c(=O)c(-c2c(F)ccc(Cl)c2CCc2ccc(C(F)(F)F)nc2)c1O [Compound 1.042, 4-[3-chloro-6-fluoro-2-[2-[6-(trifluoromethyl)-3-pyridyl]ethyl]phenyl]-5-hydroxy-2,6-dimethyl-pyridazin-3-one] | 20 | 30 | 70 | 80 | 80 | 90 | 80 | 90 | 90 | 90 | 100 | 100 | 80 | 90 | 90 | 90 | 100 | 80
3 | Cc1nn(C)c(=O)c(-c2c(F)ccc(Cl)c2CCc2ccc(F)cc2)c1O [Compound 1.048, 4-[3-chloro-6-fluoro-2-[2-(4-fluorophenyl)ethyl]phenyl]-5-hydroxy-2,6-dimethyl-pyridazin-3-one] | 0 | 10 | 20 | 50 | 60 | 70 | 60 | 80 | 80 | 90 | 90 | 100 | 60 | 90 | 90 | 90 | 90 | 70
4 | Cc1nn(C)c(=O)c(-c2c(F)ccc(Cl)c2CCc2ccccc2C(F)(F)F)c1O [Compound 1.066, 4-[3-chloro-6-fluoro-2-[2-[2-(trifluoromethyl)phenyl]ethyl]phenyl]-5-hydroxy-2,6-dimethyl-pyridazin-3-one] | 0 | 20 | 60 | 70 | 80 | 90 | 20 | 80 | 90 | 90 | 90 | 90 | 70 | 90 | 90 | 100 | 100 | 80
5 | Cc1nn(C)c(=O)c(-c2c(F)ccc(Cl)c2CCc2ccc(Cl)cc2)c1OC(=O)C(C)C [Compound 1.089, [5-[3-chloro-2-[2-(4-chlorophenyl)ethyl]-6-fluoro-phenyl]-1,3-dimethyl-6-oxo-pyridazin-4-yl] 2-methylpropanoate] | 0 | 0 | 10 | 30 | 60 | 70 | 80 | 80 | 80 | 90 | 90 | 100 | – | – | – | – | – | –
6 | Cc1nn(C)c(=O)c(-c2c(F)ccc(Cl)c2CCc2ccc(F)cc2)c1OC(=O)C(C)C [Compound 1.125, [5-[3-chloro-6-fluoro-2-[2-(4-fluorophenyl)ethyl]phenyl]-1,3-dimethyl-6-oxo-pyridazin-4-yl] 2-methylpropanoate] | 0 | 0 | 0 | 0 | 10 | 10 | 70 | 80 | 80 | 80 | 90 | 100 | 90 | 90 | 90 | 90 | 90 | 90
